Consider 17 compounds from article PMC12169455, “Discovery of Indole-Based PDE5 Inhibitors: Synthesis and Pharmacological Evaluation” (ACS Medicinal Chemistry Letters, 2025).

Structures are written as SMILES. Read-outs that look alike come from different tables or passages of the source.

The target in one data set is Recombinant human PDE5 (Homo sapiens, UniProt O76074). As to the kind of experiment: PDE5 enzymatic assay coupled with LC/MS analysis for cGMP determination. Type of data set: biochemical.
Data set [1] in a line: PAMPA using porcine brain lipids (BBB permeability). The note with it: pig.
The subject of data set [2] is MCF-7 mammary epithelial adenocarcinoma cells. Put plainly: MTT cytotoxicity assay. Type of data set: cell-based. To be noted: MCF-7, MTT. The procedure:
The cytotoxicity effect of compound 14a was investigated to validate its suitability as a lead compound for further drug development. The cancer cell line MCF-7 was used in an MTT assay assessing cell metabolic activity (see Supporting Information for materials and methods).
5 Cytotoxicity assay of compound 14a. The compound (0.1–100 μM) was dissolved in 20% DMSO in saline; ns = nonsignificant. […]
µM concentrations. […] The cells
MultiScreen® filter plate (cat. no. MAIPNTR10, Millipore). Sample solutions (300 µL, 50 µM, […]
at room temperature for 18 hours. Samples from the acceptor wells were collected and analyzed by HPLC (Nexera-i LC-2040C Plus, Shimadzu). Equilibrium solutions of compounds 5e, 14a, […]
HPLC. The assay was performed in triplicate. […]
used for the HPLC analysis. […]
apparent permeability (Papp) using the following equation:
P = C × ― ln 1 ― AUCa cm/s […]
this protocol, the donor volume (Vd) is 0.3 cm3, acceptor volume (Va) is 0.15 cm3, membrane

Where [3] appears, read: compound concentration range 0.1 nM – 100 μM, substrate concentration 150 nM, read-out: PDE5 IC50 ± SEM.
The mark [4] stands for this setting: compound tested at 10 μM, average of at least three independent experiments, read-out: % PDE5 Inhibition ± SEM.
Setting [5] is: Papp (RSD), tested at 50 μM, 18 hours, n.d. = not detected.
Setting [6] is: Papp relative to the BBB-permeable cutoff, higher than cutoff = BBB-permeable.
[7] abbreviates: PDE5 IC50 ± SEM, compound concentration range 0.1 nM – 100 μM, substrate concentration 150 nM.
Where [8] appears, read: read-out: % PDE5 Inhibition ± SEM.

Turning to `COc1ccc(NCc2cn(C)c3ccc(C#N)cc23)cc1Cl` [Compound 5a], the IC50 at Recombinant human PDE5 (setting [3]) is 2.65 ± 0.48 µM. Further, on Recombinant human PDE5 (setting [4]), the inhibition at 10 µM is 77 ± 4.87%.

Regarding `CCCn1cc(CNc2ccc(OC)c(Cl)c2)c2cc(C#N)ccc21` [Compound 5b], the IC50 at Recombinant human PDE5 (setting [3]) was 2.46 ± 0.13 µM. Besides, the inhibition at 10 µM at Recombinant human PDE5 (setting [4]) is 94.8 ± 2.58%.

As to `COc1ccc(NCc2cn(CC3CC3)c3ccc(C#N)cc23)cc1Cl` [Compound 5c], the half-inhibitory concentration (IC50) on Recombinant human PDE5 (setting [3]) was 1.37 ± 0.3 µM. At Recombinant human PDE5 (setting [4]), the inhibition at 10 µM was 86.3 ± 1.97%.

Consider `COc1ccc(NCc2cn(CC(C)C)c3ccc(C#N)cc23)cc1Cl` [Compound 5d], for which the IC50 on Recombinant human PDE5 (setting [3]) was found to be 1.72 ± 0.72 µM. Moreover, at Recombinant human PDE5 (setting [4]), the inhibition at 10 µM came out at 99.2 ± 2.72%.

Consider `COc1ccc(NCc2cn(CCN(C)C)c3ccc(C#N)cc23)cc1Cl` [Compound 5e], for which the Papp at 18 h, 50 µM was 56.2 nm/s in data set [1] (setting [5]) and more than 20 nm/s in data set [1] (setting [6]). In addition, the inhibition at 10 µM on Recombinant human PDE5 (setting [4]) stood at 26.2 ± 3.85%.

As for `COCCn1cc(CNc2ccc(OC)c(Cl)c2)c2cc(C#N)ccc21` [Compound 5f], the concentration for half-maximal inhibition (IC50) at Recombinant human PDE5 (setting [3]) stood at 10.4 ± 0.15 µM. Moreover, the inhibition at 10 µM on Recombinant human PDE5 (setting [4]) amounted to 74.5 ± 1.95%.

For the compound `COc1ccc(NCc2cn(Cc3ccncc3)c3ccc(C#N)cc23)cc1Cl` [Compound 5g], the inhibition at 10 µM on Recombinant human PDE5 (setting [4]) is 54.5 ± 4.21%.

With `COc1ccc(CNCc2cn(C)c3ccc(C#N)cc23)cc1Cl` [Compound 5h], the IC50 at Recombinant human PDE5 (setting [3]) was determined as 1.25 ± 0.15 µM. Moreover, the inhibition at 10 µM on Recombinant human PDE5 (setting [4]) was determined as 72.2 ± 1.25%.

With `Cn1cc(CNCc2ccc3c(c2)OCO3)c2cc(C#N)ccc21` [Compound 5i], the inhibition at 10 µM on Recombinant human PDE5 (setting [4]) was found to be 23.6 ± 2.24%.

Turning to `Cn1cc(CNCCN2CCOCC2)c2cc(C#N)ccc21` [Compound 5j], at Recombinant human PDE5 (setting [4]), the inhibition at 10 µM was found to be 10.5 ± 1.69%.

On to `Cn1cc(CNCc2ccc(Cl)c(C(F)(F)F)c2)c2cc(C#N)ccc21` [Compound 5k], for which the half-maximal inhibitory concentration (IC50) at Recombinant human PDE5 (setting [3]) worked out at 1.77 ± 0.39 µM. The inhibition at 10 µM at Recombinant human PDE5 (setting [4]) is 73.4 ± 4.13%.

As to `COc1ccc(Nc2cn(S(=O)(=O)c3ccc(C)cc3)c3ccc(C#N)cc23)cc1Cl` [Compound 10], the inhibition at 10 µM at Recombinant human PDE5 (setting [4]) came to 73.4 ± 7.5%.

Take `COc1ccc(CNC(=O)c2cn(CCN(C)C)c3ccc(C#N)cc23)cc1Cl` [Compound 14a]: the apparent permeability coefficient (Papp) at 18 h, 50 µM in data set [1] (setting [5]) is 28.3 nm/s; in data set [1] (setting [6]), more than 20 nm/s. Moreover, the half-maximal inhibitory concentration (IC50) at Recombinant human PDE5 (PDE5 IC50, value quoted in abstract and conclusion) is 0.0161 µM; on Recombinant human PDE5 (setting [7]), 0.0161 ± 0.007 µM. Further, the “increase in biological activity (PDE5) on replacing amine with amide” value at Recombinant human PDE5 (compared with amine analogues) is given as 2 log unit. For the same compound, the inhibition at 0.5 µM on Recombinant human PDE5 (setting [8]) was 101 ± 4.99%. Besides, the “biologically safe up to (cytotoxicity assay)” value in data set [2] is given as “up to 100 μM”. Besides, the “concentration showing a cytotoxic effect” value in data set [2] (after 72 h incubation, safe at all other concentrations tested (0.1–100 μM)) amounted to 100 µM.

Take `COc1ccc(NC(=O)c2cn(CCN(C)C)c3ccc(C#N)cc23)cc1Cl` [Compound 14b]: the IC50 on Recombinant human PDE5 (setting [7]) worked out at 10.6 ± 1.99 µM. The inhibition at 10 µM at Recombinant human PDE5 (setting [8]) came to 47.5 ± 2.33%.

Regarding `COc1ccc(CNC(=O)c2cn(CCN(C)C)c3ccccc23)cc1Cl` [Compound 14c], at Recombinant human PDE5 (setting [7]), the IC50 was determined as 3.65 ± 0.97 µM. Besides, on Recombinant human PDE5 (at 10 μM), the “PDE5 inhibition effect compared to compound 5e” value is recorded as “about double”. The inhibition at 10 µM on Recombinant human PDE5 (setting [8]) came to 66.1 ± 2.34%.

Turning to `COc1ccc(CN(C)C(=O)c2cn(CCN(C)C)c3ccc(C#N)cc23)cc1Cl.Cl` [Compound 14d], at Recombinant human PDE5 (setting [7]), the IC50 was 4.9 ± 0.68 µM. For the same compound, the “reduction of the enzymatic activity (PDE5) compared to 14a” value at Recombinant human PDE5 (amide hydrogen replaced by methyl) stood at 2 log unit. Moreover, the inhibition at 10 µM at Recombinant human PDE5 (setting [8]) is 52 ± 6.68%.

With `CCCc1nn(C)c2c(=O)[nH]c(-c3cc(S(=O)(=O)N4CCN(C)CC4)ccc3OCC)nc12` [Sildenafil, sildenafil, reference compound], the inhibition at 0.01 µM at Recombinant human PDE5 (setting [8]) was found to be 58.2 ± 2.33%.
